Test results published in patent publication US20240278014A1, “METHODS AND PHARMACEUTICAL FORMULATIONS FOR MODULATING THE PROPERTIES OF THE BLOOD LABYRINTH BARRIER” (Cochlear Limited, priority 2021, published 2024).

Key:
[1] = guinea pig, in vivo, iv
Procedure: Fluorescein (20 mM) was administered through a cannula in the jugular vein by continuous intravenous (IV) injection at a rate of 20 μL/minute. […] Implants were placed through a cochleostomy into the basal turn of the scala tympani. Perilymph sampling began two hours after IV infusion began, and the concentration of fluorescein in the perilymph was used as a proxy for BLB permeability. Sampling in the perilymph was accomplished as follows: The cochlear apex was prepared for fluid sampling by building a hydrophobic cup of silicone adhesive around it. When the apex was perforated, the emerging fluid collected in the cup without loss into the middle ear. Ten samples were collected in sequence, with each taking 60 to 90 seconds. […] Fluorescein concentrations were compared for implanted versus non-implanted […], and from ears of non-implanted control animals.

[2] = Perilymph fluorescein as proxy for BLB permeability after cochlear implantation; format: in vivo, guinea pigs; details: on average; same animal; perilymph sampled two hours after start of IV infusion
From the text: In some embodiments, methods for assessing a more permeable than normal blood labyrinth barrier (but not treating it or preventing it from becoming more permeable) involve injecting a pharmaceutical formulation functioning as a marker into the blood stream of a recipient, measuring the amount of formulation in the perilymph as a function of time. As the barrier becomes more permeable after implantation, the formulation may be detected in greater quantities in the perilymph. In this type of experiment, the data may be normalized to the contralateral ear (without an implant), which allows data to be collected from a single subject serving as its own “control.”
We measured the time course of BLB compromise following cochlear implantation in guinea pigs to characterize the development of increasing BLB permeability relating to the BLB disruption that surgical implantation causes.
Seven days following cochlear implantation, the perilymph was sampled at 126 minutes (non-implanted) and 127 minutes (implanted) after the start of IV fluorescein infusion began (shown in solid symbols). Open symbols show the same data corrected to a sample time beginning at 120 minutes after the start of the infusion, assuming a linear rate of entry through the BLB over time. […] Each sample time represents the mean of samples 1-6 from one ear; lines represent the group (n=5) mean. […]

[3] = in vivo; cited from earlier work

elimination half time [1] [min] | volume of calculated time course [1] [mL] | BLB permeability increase (perilymph fluorescein, implanted versus nonimplanted ear) [2] | Compound | effect on BLB [3]
11 | 183 | two- to three-fold | O=C1OC2(c3ccc(O)cc3Oc3cc(O)ccc32)c2ccccc21 [Fluorescein] | 
 |  |  | lipopolysaccharide [LPS] | induce systemic inflammation, compromising the BLB
